# Source: ChEMBL document CHEMBL3085671, “5,6-Dihydro-5-aza-2'-deoxycytidine potentiates the anti-HIV-1 activity of ribonucleotide reductase inhibitors” (Bioorg Med Chem, 2013)
# The source made the active and inactive calls. The calls are words filed in the database; no cut-off is given here.
# What was measured:
# [1] = system: Human immunodeficiency virus 1; test: Antiviral activity against HIV1 assessed as viral infection; assay type: functional, organism-based
# [2] = Cytotoxicity against human U373-MAGI cells by CellTitre-Glo assay; assay type: cell-based
# [3] = system: Human immunodeficiency virus 1; test: (§1) Antiviral activity against HIV1 infected in human U373-MAGI cells assessed as increase in mutant frequency incubated for 2 hrs prior to viral infection followed by compound washout after 24 hrs measured 72 hrs post-infection by flow cytometry; assay type: functional, organism-based
# [4] = system: Human immunodeficiency virus 1; test: Antiviral activity against HIV1 infected in human U373-MAGI cells incubated for 2 hrs prior to viral infection followed by compound washout after 24 hrs measured 72 hrs post-infection by flow cytometry; assay type: functional, organism-based; details: Human immunodeficiency virus 1, U373-MAGI
# [5] = Selectivity index, ratio of CC50 for human U373-MAGI cells to EC50 for HIV1 infected in human U373-MAGI cells; assay type: toxicity, cell-based; details: read-out: Ratio CC50/EC50
# [6] = system: Human immunodeficiency virus 1; test: Antiviral activity against HIV1 infected in human U373-MAGI cells assessed as induction of mutations at 20 nM (reference value: 18%); assay type: functional
# [7] = system: Human immunodeficiency virus 1; test: Antiviral activity against HIV1 infected in human U373-MAGI cells assessed as A to G mutation at 20 nM (reference value: 22%); assay type: functional
# [8] = system: Human immunodeficiency virus 1; test: Antiviral activity against HIV1 infected in human U373-MAGI cells assessed as G to A mutation at 20 nM (reference value: 27%); assay type: functional
# [9] = system: Human immunodeficiency virus 1; test: Antiviral activity against HIV1 infected in human U373-MAGI cells assessed as C to T mutation at 20 nM (reference value: 13%); assay type: functional
# [10] = system: Human immunodeficiency virus 1; test: Antiviral activity against HIV1 infected in human U373-MAGI cells assessed as T to C mutation at 20 nM (reference value: 18%); assay type: functional
# [11] = system: Human immunodeficiency virus 1; test: Potentiation of resveratrol-induced antiviral activity against HIV1 infected in human U373-MAGI cells at 200 uM incubated for 2 hrs prior to viral infection followed by compound washout after 24 hrs measured 72 hrs post-infection by flow cytometry; assay type: functional, organism-based; details: Human immunodeficiency virus 1, U373-MAGI
# [12] = system: Human immunodeficiency virus 1; test: Antiviral activity against HIV1 infected in human U373-MAGI cells assessed as A to G mutation at 200 uM (reference value: 22%); assay type: functional
# [13] = system: Human immunodeficiency virus 1; test: Antiviral activity against HIV1 infected in human U373-MAGI cells assessed as G to A mutation at 200 uM (reference value: 27%); assay type: functional
# [14] = system: Human immunodeficiency virus 1; test: Antiviral activity against HIV1 infected in human U373-MAGI cells assessed as induction of mutations at 200 uM (reference value: 18%); assay type: functional
# [15] = system: Human immunodeficiency virus 1; test: Potentiation of resveratrol-induced antiviral activity against HIV1 infected in human U373-MAGI cells assessed as T to C mutation at 200 uM (reference value: 18%); assay type: functional
# [16] = system: Human immunodeficiency virus 1; test: Inhibition of gemcitabine-induced antiviral activity against HIV1 infected in human U373-MAGI cells at 100 to 200 uM incubated for 2 hrs prior to viral infection followed by compound washout after 24 hrs measured 72 hrs post-infection by flow cytometry; assay type: functional, organism-based
# [17] = system: Human immunodeficiency virus 1; test: as §1, with “Potentiation of gemcitabine-induced antiviral” for “Antiviral”, “frequency at 25 uM” for “frequency”, “cytometry relative to control” for “cytometry”; assay type: functional
# [18] = system: Human immunodeficiency virus 1; test: Potentiation of gemcitabine-induced antiviral activity against HIV1 infected in human U373-MAGI cells assessed as induction of mutations at 5 uM (reference value: 18%); assay type: functional
# [19] = system: Human immunodeficiency virus 1; test: Potentiation of resveratrol-induced antiviral activity against HIV1 infected in human U373-MAGI cells assessed as C to T mutation at 200 uM (reference value: 13%); assay type: functional
# [20] = system: Human immunodeficiency virus 1; test: Antiviral activity against HIV1 infected in human U373-MAGI cells assessed as T to C mutation at 200 uM (reference value: 18%); assay type: functional
# [21] = system: Human immunodeficiency virus 1; test: (§2) Potentiation of deferoxamine-induced antiviral activity against HIV1 infected in human U373-MAGI cells assessed as increase in mutant frequency at 5 to 200 uM incubated for 2 hrs prior to viral infection followed by compound washout after 24 hrs measured 72 hrs post-infection by flow cytometry relative to control; assay type: functional
# [22] = system: Human immunodeficiency virus 1; test: Potentiation of resveratrol-induced antiviral activity against HIV1 infected in human U373-MAGI cells G to A mutation at 200 uM (reference value: 27%); assay type: functional
# [23] = system: Human immunodeficiency virus 1; test: Antiviral activity against HIV1 infected in human U373-MAGI cells assessed as C to T mutation at 200 uM (reference value: 13%); assay type: functional
# [24] = system: Human immunodeficiency virus 1; test: Inhibition of gemcitabine-induced antiviral activity against HIV1 infected in human U373-MAGI cells assessed as increase in mutant frequency incubated for 2 hrs prior to viral infection followed by compound washout after 24 hrs measured 72 hrs post-infection by flow cytometry relative to gemcitabine; assay type: functional, organism-based
# [25] = system: Human immunodeficiency virus 1; test: Potentiation of gemcitabine-induced antiviral activity against HIV1 infected in human U373-MAGI cells at 5 uM incubated for 2 hrs prior to viral infection followed by compound washout after 24 hrs measured 72 hrs post-infection by flow cytometry; assay type: functional, organism-based; details: Human immunodeficiency virus 1, U373-MAGI
# [26] = system: Human immunodeficiency virus 1; test: Potentiation of resveratrol-induced antiviral activity against HIV1 infected in human U373-MAGI cells assessed as A to G mutation at 200 uM (reference value: 22%); assay type: functional
# [27] = system: Human immunodeficiency virus 1; test: Potentiation of resveratrol-induced antiviral activity against HIV1 infected in human U373-MAGI cells incubated for 2 hrs prior to viral infection followed by compound washout after 24 hrs measured 72 hrs post-infection by flow cytometry; assay type: functional, organism-based
# [28] = system: Human immunodeficiency virus 1; test: Potentiation of deferoxamine-induced antiviral activity against HIV1 infected in human U373-MAGI cells incubated for 2 hrs prior to viral infection followed by compound washout after 24 hrs measured 72 hrs post-infection by flow cytometry; assay type: functional, organism-based
# [29] = system: Human immunodeficiency virus 1; test: Potentiation of gemcitabine-induced antiviral activity against HIV1 infected in human U373-MAGI cells assessed as C to T mutation at 5 uM (reference value: 13%); assay type: functional
# [30] = system: Human immunodeficiency virus 1; test: Antiviral activity against HIV1 infected in human U373-MAGI cells at 5 to 200 uM incubated for 2 hrs prior to viral infection followed by compound washout after 24 hrs measured 72 hrs post-infection by flow cytometry; assay type: functional, organism-based
# [31] = system: Human immunodeficiency virus 1; test: Potentiation of gemcitabine-induced antiviral activity against HIV1 infected in human U373-MAGI cells assessed as G to C mutation at 5 uM; assay type: functional
# [32] = system: Human immunodeficiency virus 1; test: Potentiation of gemcitabine-induced antiviral activity against HIV1 infected in human U373-MAGI cells assessed as A to G mutation at 5 uM (reference value: 22%); assay type: functional
# [33] = system: Human immunodeficiency virus 1; test: Potentiation of gemcitabine-induced antiviral activity against HIV1 infected in human U373-MAGI cells G to A mutation at 5 uM (reference value: 27%); assay type: functional
# [34] = system: Human immunodeficiency virus 1; test: Antiviral activity against HIV1 infected in human U373-MAGI cells assessed as increase in mutant frequency at 5 to 200 uM incubated for 2 hrs prior to viral infection followed by compound washout after 24 hrs measured 72 hrs post-infection by flow cytometry; assay type: functional
# [35] = system: Human immunodeficiency virus 1; test: Potentiation of gemcitabine-induced antiviral activity against HIV1 infected in human U373-MAGI cells assessed as T to C mutation at 5 uM (reference value: 18%); assay type: functional
# [36] = system: Human immunodeficiency virus 1; test: Antiviral activity against HIV1 infected in human U373-MAGI cells assessed as G to C mutation at 200 uM; assay type: functional
# [37] = system: Human immunodeficiency virus 1; test: Potentiation of deferoxamine-induced antiviral activity against HIV1 infected in human U373-MAGI cells at 200 uM incubated for 2 hrs prior to viral infection followed by compound washout after 24 hrs measured 72 hrs post-infection by flow cytometry; assay type: functional, organism-based; details: Human immunodeficiency virus 1, U373-MAGI
# [38] = system: Human immunodeficiency virus 1; test: Potentiation of resveratrol-induced antiviral activity against HIV1 infected in human U373-MAGI cells assessed as G to C mutation at 200 uM; assay type: functional
# [39] = system: Human immunodeficiency virus 1; test: as §2, with “resveratrol-induced” for “deferoxamine-induced”; assay type: functional
# [40] = system: Human immunodeficiency virus 1; test: Potentiation of gemcitabine-induced antiviral activity against HIV1 infected in human U373-MAGI cells assessed as induction of mutations at 200 uM (reference value: 18%); assay type: functional
# [41] = Cytotoxicity against human U373-MAGI cells up to 200 uM by CellTitre-Glo assay; assay type: cell-based
# [42] = system: Human immunodeficiency virus 1; test: Potentiation of gemcitabine-induced antiviral activity against HIV1 infected in human U373-MAGI cells at 5 to 50 uM incubated for 2 hrs prior to viral infection followed by compound washout after 24 hrs measured 72 hrs post-infection by flow cytometry; assay type: functional, organism-based
# [43] = system: Human immunodeficiency virus 1; test: Antiviral activity against HIV1 infected in human U373-MAGI cells assessed as G to A mutation at 50 uM (reference value: 27%); assay type: functional
# [44] = system: Human immunodeficiency virus 1; test: Antiviral activity against HIV1 infected in human U373-MAGI cells assessed as C to T mutation at 50 uM (reference value: 13%); assay type: functional
# [45] = system: Human immunodeficiency virus 1; test: Antiviral activity against HIV1 infected in human U373-MAGI cells assessed as T to C mutation at 50 uM (reference value: 18%); assay type: functional
# [46] = system: Human immunodeficiency virus 1; test: Antiviral activity against HIV1 infected in human U373-MAGI cells assessed as induction of mutations at 50 uM (reference value: 18%); assay type: functional
# [47] = system: Human immunodeficiency virus 1; test: Antiviral activity against HIV1 infected in human U373-MAGI cells assessed as A to G mutation at 50 uM (reference value: 22%); assay type: functional
smiles,measurement,setting,value
Nc1ncn([C@@H]2O[C@H](CO)[C@@H](O)[C@H]2O)c(=O)n1 [AZACITIDINE],EC50,[1],53 µM
CC(=O)N(O)CCCCCNC(=O)CCC(=O)N(O)CCCCCNC(=O)CCC(=O)N(O)CCCCCN [DEFEROXAMINE],CC50,[2]; u373-magi,> 400 µM
same,Activity,[3],Dose-dependent effect
same,EC50,[4],384 µM
same,selectivity ratio,[5],> 1
Nc1ccn([C@@H]2O[C@H](CO)[C@@H](O)C2(F)F)c(=O)n1 [GEMCITABINE],Activity,[6],24%
same,CC50,[2]; u373-magi,62 µM
same,Activity,[3],Dose-dependent effect
same,Activity,[7],24%
same,Activity,[8],13%
same,Activity,[9],13%
same,Activity,[10],24%
NC1=NC(=O)N([C@H]2C[C@H](O)[C@@H](CO)O2)CN1 [KP-1212],EC50,[11],52.8 µM
same,Activity,[12],18%
same,Activity,[13],24%
same,Activity,[14],16%
same,Activity,[15],10%
same,inhibition,[16],Active
same,fold change (FC),[17],4.8
same,Activity,[18],14%
same,Activity,[19],9%
same,Activity,[20],8%
same,fold change (FC),[21],4.7
same,Activity,[22],13%
same,Activity,[23],10%
same,inhibition,[24],Active
same,EC50,[25],0.0216 µM
same,Activity,[26],13%
same,Activity,[27],Dose-dependent effect
same,Activity,[28],Dose-dependent effect
same,Activity,[29],12%
same,Activity,[30],Active
same,Activity,[31],11%
same,Activity,[32],32%
same,Activity,[3],Dose-dependent effect
same,EC50,[1],0.01 µM
same,Activity,[33],18%
same,fold change (FC),[34],1.6
same,Activity,[35],14%
same,Activity,[36],22%
same,EC50,[37],248 µM
same,Activity,[38],41%
same,fold change (FC),[39],6.2
same,Activity,[40],14%
same,Activity,[41],Non-toxic
same,Activity,[42],Active
Oc1ccc(/C=C/c2cc(O)cc(O)c2)cc1 [RESVERATROL],Activity,[43],18%
same,Activity,[44],4%
same,CC50,[2]; U373-MAGI cells,> 400 µM
same,Activity,[45],16%
same,Activity,[3],Dose-dependent effect
same,EC50,[4],99.6 µM
same,Activity,[46],22%
same,Activity,[47],38%
